The values below come from patent US12433889B2 (priority 2021, dated 2025).

Each structure is given as a SMILES string. In brackets after ≈: the same amount, converted by molar mass.

The subject of one series is M. avium B18101968. The series is described as follows: MIC by microbroth dilution, with and without CF sputum. The class given is cell-based. As to conditions: Mycobacterium avium.
For a further series, the system named is M. Chimaera CIP 107892. Described as above. The format is cell-based. Particulars: Mycobacterium intracellulare.
Another series concerns M. abscessus B18104072. The series is described as above. The format is cell-based. As to conditions: Mycobacteroides abscessus.
The test system of a further series is M. abscessus B12052284. Described as above. The format is cell-based. As to conditions: Mycobacteroides abscessus.
The conditions of series [1]: BCS class II; cited from earlier work.
The next series deals with M. avium ATCC 700898. The series is described as follows: MIC by microbroth dilution, with and without CF sputum. Particulars: Mycobacterium avium. The format is cell-based. For orientation: Broth dilution looks for growth in wells or tubes with falling amounts of substance.
The conditions of series [2]: humans, microcrystalline suspension in an oil-wax base; cited from earlier work.
In series [3] the test system is M. intracellulare DSM 43223. The experiment in a line: MIC by microbroth dilution, with and without CF sputum. The class given is cell-based. Particulars: Mycobacterium intracellulare.
The next series concerns M. abscessus CIP104536. The series is described as above. The format is cell-based. As to conditions: Mycobacteroides abscessus.
Another series concerns M. abscessus B15029863. The series is described as above. Particulars: Mycobacteroides abscessus. The format is cell-based.

The term MIC denotes the least concentration at which growth counts as inhibited. Turning to `CC(C)/N=c1\cc2n(-c3ccc(Cl)cc3)c3ccccc3nc-2cc1Nc1ccc(Cl)cc1` [Clofazimine, clofazimine], the MIC was greater than 2 µg/mL in the series on M. avium B18101968 (B18101968, + SP (10% CF sputum)); 0.5 µg/mL (≈ 1.06 µM) against M. avium B18101968 (B18101968, absence of sputum); greater than 2 µg/mL in the series with M. Chimaera CIP 107892 (CIP107892, + SP (10% CF sputum)); 0.5 µg/mL (≈ 1.06 µM) in the series on M. Chimaera CIP 107892 (CIP107892, absence of sputum); greater than 2 µg/mL with M. abscessus B18104072 (B18104072, + SP (10% CF sputum)); 1 µg/mL (≈ 2.11 µM) with M. abscessus B18104072 (B18104072, absence of sputum). Also, the minimal inhibitory concentration (MIC) is greater than 2 µg/mL with M. abscessus B12052284 (B12052284, + SP (10% CF sputum)); 2 µg/mL (≈ 4.22 µM) with M. abscessus B12052284 (B12052284, absence of sputum); greater than 2 µg/mL in the series with M. avium ATCC 700898 (ATCC700898, + SP (10% CF sputum)); 0.25 µg/mL (≈ 0.528 µM) in the series on M. avium ATCC 700898 (ATCC700898, absence of sputum); greater than 2 µg/mL in series [3] (DSM43223, + SP (10% CF sputum)); 1 µg/mL (≈ 2.11 µM) in series [3] (DSM43223, absence of sputum). Further, the MIC with M. abscessus CIP104536 (CIP104536, + SP (10% CF sputum)) is greater than 2 µg/mL; against M. abscessus CIP104536 (CIP104536, absence of sputum), 0.25 µg/mL (≈ 0.528 µM); with M. abscessus B15029863 (B15029863, + SP (10% CF sputum)), greater than 2 µg/mL; in the series with M. abscessus B15029863 (B15029863, absence of sputum), 2 µg/mL (≈ 4.22 µM). Also, the solubility in water result in series [1] is “practically insoluble in water”. In addition, the “absorption after oral administration” value in series [2] is 45-62%.
